Experimental data published in the kinase profiling compilation of Christmann-Franck et al. (2016).

What was measured:
Assay in all cases: KINOMEscan competition binding
Details in all cases: compound 10.0 µM
[1] = molecular target: AXL (human) (UniProt P30530)
[2] = molecular target: DCLK1 (human) (UniProt O15075)
[3] = molecular target: FES (human) (UniProt P07332)
[4] = molecular target: RPS6KA2 KD1 (human) (UniProt Q15349)
[5] = molecular target: PRKD3 (human) (UniProt O94806)
[6] = molecular target: IKBKB (human) (UniProt O14920)
[7] = molecular target: STK32C (human) (UniProt Q86UX6)
[8] = molecular target: CDK14 (human) (UniProt O94921)
[9] = molecular target: PLK4 (human) (UniProt O00444)
[10] = molecular target: ACVR2A (human) (UniProt P27037)
[11] = molecular target: DDR1 (human) (UniProt Q08345)
[12] = molecular target: SIK3 (human) (UniProt Q9Y2K2)
[13] = molecular target: ACVR1B (human) (UniProt P36896)
[14] = molecular target: MAP3K13 (human) (UniProt O43283)
[15] = molecular target: CDK5 (human) (UniProt Q00535)
[16] = molecular target: MAST1 (human) (UniProt Q9Y2H9)
[17] = molecular target: AKT1 (human) (UniProt P31749)
[18] = molecular target: CDC42BPA (human) (UniProt Q5VT25)
[19] = molecular target: EPHB4 (human) (UniProt P54760)
[20] = molecular target: PKN2 (human) (UniProt Q16513)
[21] = molecular target: NUAK2 (human) (UniProt Q9H093)
[22] = molecular target: IGF1R (human) (UniProt P08069)
[23] = molecular target: PRKCE (human) (UniProt Q02156)
[24] = molecular target: MET (human) (UniProt P08581)
[25] = molecular target: EPHB3 (human) (UniProt P54753)
[26] = molecular target: NEK5 (human) (UniProt Q6P3R8)
[27] = molecular target: TSSK1B (human) (UniProt Q9BXA7)
[28] = molecular target: PAK6 (human) (UniProt Q9NQU5)
[29] = molecular target: AAK1 (human) (UniProt Q2M2I8)
[30] = molecular target: PRKD2 (human) (UniProt Q9BZL6)
[31] = molecular target: EPHA6 (human) (UniProt Q9UF33)
[32] = molecular target: RIOK2 (human) (UniProt Q9BVS4)
[33] = molecular target: MYLK2 (human) (UniProt Q9H1R3)
[34] = molecular target: NUAK1 (human) (UniProt O60285)
[35] = molecular target: TBK1 (human) (UniProt Q9UHD2)
[36] = molecular target: MAPK8 (human) (UniProt P45983)
[37] = molecular target: CSNK1D (human) (UniProt P48730)
[38] = molecular target: CAMKK1 (human) (UniProt Q8N5S9)
[39] = molecular target: LRRK2 (human) (UniProt Q5S007)
[40] = molecular target: MAP2K7 (human) (UniProt O14733)

CSNK1D (human), sequence (P48730 whole entry, looked up): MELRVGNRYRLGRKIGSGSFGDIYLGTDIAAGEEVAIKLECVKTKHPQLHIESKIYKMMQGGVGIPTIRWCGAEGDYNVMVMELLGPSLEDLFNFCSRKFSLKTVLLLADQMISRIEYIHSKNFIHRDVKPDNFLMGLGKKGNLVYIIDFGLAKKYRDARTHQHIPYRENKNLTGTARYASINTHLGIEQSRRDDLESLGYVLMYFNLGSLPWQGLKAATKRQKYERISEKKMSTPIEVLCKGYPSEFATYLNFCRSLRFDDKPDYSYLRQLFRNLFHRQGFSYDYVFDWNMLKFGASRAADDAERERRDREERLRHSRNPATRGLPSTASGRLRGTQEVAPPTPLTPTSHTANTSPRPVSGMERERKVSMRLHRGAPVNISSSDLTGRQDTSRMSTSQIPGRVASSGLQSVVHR
RIOK2 (human), sequence (Q9BVS4 whole entry, looked up): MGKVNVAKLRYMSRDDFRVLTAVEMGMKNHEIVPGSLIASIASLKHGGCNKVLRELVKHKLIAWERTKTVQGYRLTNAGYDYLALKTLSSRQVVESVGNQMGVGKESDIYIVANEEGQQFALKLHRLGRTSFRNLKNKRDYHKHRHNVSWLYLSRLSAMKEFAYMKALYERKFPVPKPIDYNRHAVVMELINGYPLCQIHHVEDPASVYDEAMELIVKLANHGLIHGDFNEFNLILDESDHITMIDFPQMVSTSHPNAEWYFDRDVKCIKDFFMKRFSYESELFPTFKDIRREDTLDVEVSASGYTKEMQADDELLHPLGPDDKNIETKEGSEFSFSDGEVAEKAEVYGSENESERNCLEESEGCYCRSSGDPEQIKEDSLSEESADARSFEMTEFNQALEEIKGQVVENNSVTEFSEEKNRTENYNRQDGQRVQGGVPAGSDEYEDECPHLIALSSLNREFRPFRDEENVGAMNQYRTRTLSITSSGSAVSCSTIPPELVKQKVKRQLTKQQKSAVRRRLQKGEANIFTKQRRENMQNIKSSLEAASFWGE
CDK14 (human), sequence (O94921 whole entry, looked up): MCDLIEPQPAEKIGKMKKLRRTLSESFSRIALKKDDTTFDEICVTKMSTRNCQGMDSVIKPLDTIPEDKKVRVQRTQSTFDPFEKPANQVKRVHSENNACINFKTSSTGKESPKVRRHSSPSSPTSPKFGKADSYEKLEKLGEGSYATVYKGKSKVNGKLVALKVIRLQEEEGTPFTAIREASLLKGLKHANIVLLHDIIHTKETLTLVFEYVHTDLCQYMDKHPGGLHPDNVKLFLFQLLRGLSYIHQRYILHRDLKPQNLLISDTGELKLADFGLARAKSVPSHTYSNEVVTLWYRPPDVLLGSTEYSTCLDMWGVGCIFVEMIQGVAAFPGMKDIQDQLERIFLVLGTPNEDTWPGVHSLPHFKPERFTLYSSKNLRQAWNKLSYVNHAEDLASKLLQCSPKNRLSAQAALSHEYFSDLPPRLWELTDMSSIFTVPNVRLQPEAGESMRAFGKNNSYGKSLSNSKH
CAMKK1 (human), sequence (Q8N5S9 whole entry, looked up): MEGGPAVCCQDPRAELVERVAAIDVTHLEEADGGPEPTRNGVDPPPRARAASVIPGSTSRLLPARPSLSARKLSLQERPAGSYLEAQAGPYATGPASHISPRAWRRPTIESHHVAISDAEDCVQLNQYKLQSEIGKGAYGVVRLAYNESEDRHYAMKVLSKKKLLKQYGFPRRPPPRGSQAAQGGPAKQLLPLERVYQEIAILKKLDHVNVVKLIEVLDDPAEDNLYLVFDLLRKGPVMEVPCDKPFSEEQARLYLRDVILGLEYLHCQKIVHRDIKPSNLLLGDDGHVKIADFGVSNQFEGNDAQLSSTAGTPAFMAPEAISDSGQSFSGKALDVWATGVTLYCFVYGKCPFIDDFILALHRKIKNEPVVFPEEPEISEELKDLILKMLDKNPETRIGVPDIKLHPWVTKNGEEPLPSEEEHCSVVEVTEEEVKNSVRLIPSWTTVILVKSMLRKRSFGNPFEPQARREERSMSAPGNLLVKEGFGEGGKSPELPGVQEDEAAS
MET (human), sequence (P08581 whole entry, looked up): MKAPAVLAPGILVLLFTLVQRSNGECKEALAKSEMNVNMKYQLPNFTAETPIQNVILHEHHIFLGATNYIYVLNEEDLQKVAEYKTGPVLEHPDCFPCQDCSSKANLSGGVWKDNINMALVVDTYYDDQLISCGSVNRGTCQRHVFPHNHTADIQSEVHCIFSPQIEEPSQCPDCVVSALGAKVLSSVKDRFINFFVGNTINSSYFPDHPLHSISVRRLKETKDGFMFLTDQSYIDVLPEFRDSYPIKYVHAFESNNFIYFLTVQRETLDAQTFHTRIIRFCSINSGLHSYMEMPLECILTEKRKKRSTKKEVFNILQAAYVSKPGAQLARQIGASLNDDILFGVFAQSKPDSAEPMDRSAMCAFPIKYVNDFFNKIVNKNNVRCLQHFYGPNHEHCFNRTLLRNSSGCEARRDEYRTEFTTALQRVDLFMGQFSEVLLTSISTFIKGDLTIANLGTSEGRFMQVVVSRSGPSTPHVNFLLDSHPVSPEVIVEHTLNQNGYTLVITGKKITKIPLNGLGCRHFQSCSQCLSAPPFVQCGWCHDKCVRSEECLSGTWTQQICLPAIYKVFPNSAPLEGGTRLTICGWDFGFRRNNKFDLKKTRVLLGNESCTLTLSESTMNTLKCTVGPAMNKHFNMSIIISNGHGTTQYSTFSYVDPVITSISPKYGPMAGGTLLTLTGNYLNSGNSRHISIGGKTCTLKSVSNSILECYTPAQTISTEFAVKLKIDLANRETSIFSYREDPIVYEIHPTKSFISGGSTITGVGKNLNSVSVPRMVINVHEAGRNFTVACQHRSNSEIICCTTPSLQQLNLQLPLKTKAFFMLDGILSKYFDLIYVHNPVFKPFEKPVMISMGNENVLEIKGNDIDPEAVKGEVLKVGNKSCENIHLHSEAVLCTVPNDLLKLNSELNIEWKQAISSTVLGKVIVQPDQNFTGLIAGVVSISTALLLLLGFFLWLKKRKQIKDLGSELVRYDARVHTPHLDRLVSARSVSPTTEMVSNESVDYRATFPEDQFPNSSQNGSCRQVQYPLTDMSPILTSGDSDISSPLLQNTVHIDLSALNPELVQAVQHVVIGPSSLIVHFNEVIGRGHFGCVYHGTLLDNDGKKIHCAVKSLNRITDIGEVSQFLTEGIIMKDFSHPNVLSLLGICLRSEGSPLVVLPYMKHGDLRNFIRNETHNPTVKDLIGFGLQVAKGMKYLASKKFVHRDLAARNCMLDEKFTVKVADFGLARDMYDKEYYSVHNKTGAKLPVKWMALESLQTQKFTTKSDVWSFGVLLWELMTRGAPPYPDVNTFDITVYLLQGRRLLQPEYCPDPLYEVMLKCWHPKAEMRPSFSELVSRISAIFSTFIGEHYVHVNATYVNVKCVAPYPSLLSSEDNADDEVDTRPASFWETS
AAK1 (human), sequence (Q2M2I8 whole entry, looked up): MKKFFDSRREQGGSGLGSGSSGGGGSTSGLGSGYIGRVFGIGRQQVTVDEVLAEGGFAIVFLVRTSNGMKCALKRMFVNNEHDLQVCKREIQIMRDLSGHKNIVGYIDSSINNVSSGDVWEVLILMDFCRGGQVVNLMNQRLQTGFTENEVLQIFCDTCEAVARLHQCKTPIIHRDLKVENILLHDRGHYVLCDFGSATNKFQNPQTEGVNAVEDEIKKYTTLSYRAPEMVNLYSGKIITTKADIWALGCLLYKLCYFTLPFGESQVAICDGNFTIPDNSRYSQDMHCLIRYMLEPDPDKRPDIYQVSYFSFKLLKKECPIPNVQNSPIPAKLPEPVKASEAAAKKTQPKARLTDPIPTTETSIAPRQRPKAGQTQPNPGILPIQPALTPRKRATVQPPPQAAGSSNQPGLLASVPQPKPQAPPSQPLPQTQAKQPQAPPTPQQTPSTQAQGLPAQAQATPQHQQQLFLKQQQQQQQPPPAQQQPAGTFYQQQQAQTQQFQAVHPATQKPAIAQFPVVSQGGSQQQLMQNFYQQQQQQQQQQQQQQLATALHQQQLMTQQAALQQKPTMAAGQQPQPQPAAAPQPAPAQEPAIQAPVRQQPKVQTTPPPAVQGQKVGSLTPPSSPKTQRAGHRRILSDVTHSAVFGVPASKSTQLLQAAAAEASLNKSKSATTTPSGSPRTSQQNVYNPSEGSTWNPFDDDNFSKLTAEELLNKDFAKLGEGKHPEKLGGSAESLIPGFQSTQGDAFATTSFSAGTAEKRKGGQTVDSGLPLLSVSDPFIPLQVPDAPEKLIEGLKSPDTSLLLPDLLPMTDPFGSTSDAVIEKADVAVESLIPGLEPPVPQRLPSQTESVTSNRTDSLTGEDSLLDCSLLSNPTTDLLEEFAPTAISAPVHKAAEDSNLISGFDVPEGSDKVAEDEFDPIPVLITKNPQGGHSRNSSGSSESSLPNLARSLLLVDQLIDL
ACVR1B (human), sequence (P36896 whole entry, looked up): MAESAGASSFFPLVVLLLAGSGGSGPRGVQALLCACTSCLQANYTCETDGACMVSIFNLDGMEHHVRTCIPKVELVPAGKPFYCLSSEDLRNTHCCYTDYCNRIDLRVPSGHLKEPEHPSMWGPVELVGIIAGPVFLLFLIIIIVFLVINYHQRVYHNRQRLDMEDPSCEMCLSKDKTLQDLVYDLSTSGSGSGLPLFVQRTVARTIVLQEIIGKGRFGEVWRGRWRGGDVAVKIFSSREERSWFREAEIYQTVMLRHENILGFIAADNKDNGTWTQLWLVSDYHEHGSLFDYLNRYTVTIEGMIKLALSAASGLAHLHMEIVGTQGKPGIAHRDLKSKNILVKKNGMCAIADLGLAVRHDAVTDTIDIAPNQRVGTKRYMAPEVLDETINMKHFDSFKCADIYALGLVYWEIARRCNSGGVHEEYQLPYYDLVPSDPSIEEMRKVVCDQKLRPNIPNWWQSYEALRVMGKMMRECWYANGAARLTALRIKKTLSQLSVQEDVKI

kinase still bound, per cent of control [1]	kinase still bound, per cent of control [2]	kinase still bound, per cent of control [4]	kinase still bound, per cent of control [5]	kinase still bound, per cent of control [6]	kinase still bound, per cent of control [7]	kinase still bound, per cent of control [8]	kinase still bound, per cent of control [9]	kinase still bound, per cent of control [10]	kinase still bound, per cent of control [11]	kinase still bound, per cent of control [13]	kinase still bound, per cent of control [14]	kinase still bound, per cent of control [15]	kinase still bound, per cent of control [16]	kinase still bound, per cent of control [17]	kinase still bound, per cent of control [18]	kinase still bound, per cent of control [19]	kinase still bound, per cent of control [20]	kinase still bound, per cent of control [21]	kinase still bound, per cent of control [22]	Compound	other results
100%	0.65%	100%	5.4%	100%	100%	100%	6.8%	100%	100%	100%	100%	100%	100%	100%	100%	100%	100%	14%	100%	COc1cc(N2CCN(C)CC2)ccc1Nc1ncc2c(n1)N(C)c1ccccc1C(=O)N2C	kinase still bound, per cent of control [3]: 100%; kinase still bound, per cent of control [12]: 100%; kinase still bound, per cent of control [23]: 100%; kinase still bound, per cent of control [24]: 100%; kinase still bound, per cent of control [25]: 100%; kinase still bound, per cent of control [26]: 100%; kinase still bound, per cent of control [27]: 100%; kinase still bound, per cent of control [28]: 100%; kinase still bound, per cent of control [29]: 100%; kinase still bound, per cent of control [30]: 0.55%; kinase still bound, per cent of control [31]: 100%; kinase still bound, per cent of control [32]: 100%; kinase still bound, per cent of control [33]: 100%; kinase still bound, per cent of control [34]: 7.6%; kinase still bound, per cent of control [35]: 100%; kinase still bound, per cent of control [36]: 100%; kinase still bound, per cent of control [37]: 100%; kinase still bound, per cent of control [38]: 100%
100%	100%	100%	100%	100%	100%	100%	100%	100%	0.15%	100%	100%	100%	100%	100%	100%	100%	100%	100%	100%	CCN(CC)CCCCNc1ncc2c(n1)N(C)C(=O)N(c1c(Cl)c(OC)cc(OC)c1Cl)C2	kinase still bound, per cent of control [3]: 100%; kinase still bound, per cent of control [12]: 100%; kinase still bound, per cent of control [23]: 100%; kinase still bound, per cent of control [24]: 100%; kinase still bound, per cent of control [25]: 100%; kinase still bound, per cent of control [26]: 100%; kinase still bound, per cent of control [27]: 100%; kinase still bound, per cent of control [28]: 100%; kinase still bound, per cent of control [29]: 100%; kinase still bound, per cent of control [30]: 100%; kinase still bound, per cent of control [31]: 100%; kinase still bound, per cent of control [32]: 100%; kinase still bound, per cent of control [33]: 100%; kinase still bound, per cent of control [34]: 100%; kinase still bound, per cent of control [35]: 100%; kinase still bound, per cent of control [36]: 100%; kinase still bound, per cent of control [37]: 100%; kinase still bound, per cent of control [38]: 100%
100%	100%	100%	100%	100%	100%	100%	100%	100%	100%	100%	100%	100%	100%	100%	100%	100%	100%	100%	100%	CS(=O)(=O)N1CCN(Cc2cc3nc(-c4cccc5[nH]ncc45)nc(N4CCOCC4)c3s2)CC1	kinase still bound, per cent of control [3]: 100%; kinase still bound, per cent of control [12]: 100%; kinase still bound, per cent of control [23]: 100%; kinase still bound, per cent of control [24]: 100%; kinase still bound, per cent of control [25]: 100%; kinase still bound, per cent of control [26]: 100%; kinase still bound, per cent of control [27]: 100%; kinase still bound, per cent of control [28]: 100%; kinase still bound, per cent of control [29]: 100%; kinase still bound, per cent of control [30]: 100%; kinase still bound, per cent of control [31]: 100%; kinase still bound, per cent of control [32]: 100%; kinase still bound, per cent of control [33]: 100%; kinase still bound, per cent of control [34]: 100%; kinase still bound, per cent of control [35]: 100%; kinase still bound, per cent of control [36]: 100%; kinase still bound, per cent of control [37]: 100%; kinase still bound, per cent of control [38]: 100%

Compound	kinase still bound, per cent of control [1]	kinase still bound, per cent of control [2]	kinase still bound, per cent of control [4]	kinase still bound, per cent of control [5]	kinase still bound, per cent of control [6]	kinase still bound, per cent of control [7]	kinase still bound, per cent of control [8]	kinase still bound, per cent of control [9]	kinase still bound, per cent of control [10]	kinase still bound, per cent of control [11]	kinase still bound, per cent of control [13]	kinase still bound, per cent of control [14]	kinase still bound, per cent of control [15]	kinase still bound, per cent of control [16]	kinase still bound, per cent of control [17]	kinase still bound, per cent of control [18]	kinase still bound, per cent of control [19]	kinase still bound, per cent of control [20]	kinase still bound, per cent of control [21]	kinase still bound, per cent of control [22]	other results
C[C@@H](Oc1cc(-c2cnn(C3CCNCC3)c2)cnc1N)c1c(Cl)ccc(F)c1Cl	5.3%	2%	34%	3%	14%	100%	92%	0.1%	30%	0.4%	9%	10%	100%	100%	100%	43%	4.8%	26%	5.5%	0.9%	kinase still bound, per cent of control [23]: 100%; kinase still bound, per cent of control [25]: 100%; kinase still bound, per cent of control [26]: 63%; kinase still bound, per cent of control [27]: 40%; kinase still bound, per cent of control [28]: 72%; kinase still bound, per cent of control [29]: 21%; kinase still bound, per cent of control [30]: 3.3%; kinase still bound, per cent of control [39]: 97%; kinase still bound, per cent of control [31]: 0.7%; kinase still bound, per cent of control [32]: 56%; kinase still bound, per cent of control [33]: 73%; kinase still bound, per cent of control [34]: 0.7%; kinase still bound, per cent of control [35]: 8.7%; kinase still bound, per cent of control [36]: 100%; kinase still bound, per cent of control [40]: 83%; kinase still bound, per cent of control [37]: 100%; kinase still bound, per cent of control [38]: 60%
